Common to all, as to assay type: cell-based, human
In one series the test system is PIG1 cells. The experiment in a line: Proliferation/cytotoxicity assay (sulphorhodamine B) on PIG1 melanocyte. As to conditions: PIG1, compared with dithranol.
Assay in series [1]: as above
Particulars: human, PIG1 immortalized epidermal melanocyte cells; PIG1 melanocyte, incubation 72 h; read-out: IC50 on growth (cytotoxic effect).

The nature of series [2]: Proliferation/cytotoxicity assay (sulphorhodamine B) on Hs-68 fibroblast. Particulars: human, Hs-68 foreskin fibroblast cells; Hs-68 fibroblast, incubation 72 h; read-out: IC50 on growth (cytotoxic effect).
For the next series, the system named is Hs-68 cells. The description is as above. Particulars: Hs-68, compared with dithranol.

Several values for one entry are separate records, joined by “and”; a condition that tells them apart may be missing. Identical values can stand only once.

`O=C(O)c1cc(O)c2ccccc2c1O` [DHNA, 1,4-dihydroxy-2-naphthoic acid]: in the series on PIG1 cells, the “less cytotoxicity on melanocytes than dithranol” value was ~ 10 times. Also, the IC50 at 72 h was 24 µM and 4.9 µg/mL in series [1]; 226 µM and 46.2 µg/mL in series [2]. Further, the “less cytotoxicity on fibroblasts than dithranol” value in the series on Hs-68 cells is ~ 8 times.

As to `O=C1c2c(O)cccc2Cc2cccc(O)c21` [Dithranol, dithranol, reference compound], the IC50 at 72 h was 2.34 µM and 0.53 µg/mL in series [1]; 27.4 µM and 6.2 µg/mL in series [2].

Values taken from PMC3638593, “1,4-dihydroxy-2-naphthoic Acid Induces Apoptosis in Human Keratinocyte: Potential Application for Psoriasis Treatment” (Evidence-based Complementary and Alternative Medicine : eCAM, 2013).
